The target in one data set is cpAC17-4 RNA aptamer. In words: Affinity measurement by SPR, cpAC17-4 immobilized chip. The format is binding. The following applies: cpAC17-4 with 3′ poly(A) tail. As to the method: Affinity measurements of the aptamers with the ligands by SPR were performed as described by Chang et al.^53 with some modifications. Experiments were performed on Biacore T200 (Cytiva) at 25° C. For immobilization of the capture DNA (5′-/5AmMC6/[…]-3′ (SEQ ID NO: 32),/5AmMC6/: 5′ amino modifier C6, IDT), 1×HBS-N (10 mM HEPES, pH 7.4, 150 mM NaCl) was used as the running buffer. CM5 chip surface was washed by two injections of NaOH/NaCl solution (25 mM NaOH, 1 M NaCl) at 20 μl min^−1 for 30 s. […]
The dsDNA templates for in vitro transcription of the aptamers were prepared by primer extension of two oligo DNAs using Q5 High-Fidelity DNA Polymerase (NEB). […] RNA concentrations were determined by absorbance at 260 nm according to OligoCalc^54. […] An aptamer ligand was injected at 30 μl min^−1 for 120 s to monitor association, and then the dissociation kinetics was monitored for 180 s in the SPR running buffer. […] The raw data were analysed by Biacore T200 Evaluation Software 1.0 using 1:1 Langmuir interaction model. […] Dissociation constant (KD) was determined from the ratio of the association and the dissociation rate constants (KD=koff/kon) or by equilibrium analysis. […]

The subject of data set [1] is potassium channel Kv12.2 encoded by the Kcnh3/BEC1 gene. As to conditions: cited from earlier work.
The conditions of data set [2]: in vivo; cited from earlier work.
Data set [3] has as its system hEPO secretion from HEK293 cells. In words: In vitro hEPO assay (ELISA), AAV vector plasmids in HEK293 cells. The format is cell-based, human. As to the method: For the hEPO ELISA assay in FIG. 9b, HEK293 cells were trypsinized and diluted to 2.0×10^5 cells ml^−1 and 100 μl per well were seeded onto a 96-well collagen plate. Cells in each well were transfected with 100 ng of the pAAV-CMV-hEPO-p3-d pAAV-CMV-hEPO-control, pAAV-MCS-based plasmids encoding human EPO with or without CPP-a8c-AC17-4 riboswitch using 0.3 μl of TransIT-293 Transfection Reagent according to the manufacturer's instructions. The medium in each well was replaced with fresh medium with (up to 10 μM) or without ASP7967 5 h after transfection. At 24 h after transfection, the medium in each well was collected and stored at −20° C. To measure hEPO concentrations, the medium was diluted 50-fold by PBS and further diluted 50-fold by the specimen diluent buffer included in the ELISA kit. The diluted samples were measured using Human Erythropoietin/EPO Quantikine ELISA Kit (R&D systems, Inc.) and Infinite M200 PRO microplate reader (TECAN).
Then, a8c-AC17-4-CPP was inserted into the 3′ UTR region of hEPO gene expressed from the CMV promoter in a plasmid containing AAV2 inverted terminal repeats (ITR) (pAAV-CMV-hEPO-a8c-AC17-4-CPP) (FIG. 9a). The plasmid pAAV-CMV-hEPO-a8c-AC17-4-CPP was transfected into HEK293 cells in the absence or presence (0.1~10 μM) of ASP7967. Two days after transfection, hEPO concentrations in the culture medium were measured by ELISA. […]
For orientation: An ELISA detects its analyte on a solid surface through an enzyme-linked reagent.

Data set [4] is described as follows: Pharmacokinetics of ASP7967 in mice after oral administration (LC-MS/MS). The format is in vivo, mice (BALB/c cAJc1). As to conditions: for Tmax: first sampling time point. Here is the method:
FIG. 10 Pharmacokinetics of ASP7967 in mice after oral administration. After oral administration at 100 mg kg^−1 to mice (BALB/c cAJc1), plasma and liver concentrations of ASP7967 were measured using liquid chromatography-tandem mass spectrometry (LC-MS/MS). ASP7967 concentrations in both plasma and liver reached maxima within the first sampling time point of 1 h and then decreased over time.

SMILES strings stand for the structures. “Also recorded” adds a separate entry of the source. Where two headings read alike, the source gives them in different places.

What is called Kd is a measure of binding affinity in units of concentration.

For `Fc1ccc(Nc2nc(NCc3ncccn3)nc(Nc3ccccc3)n2)cc1` [ASP2905, reference compound], the Kd at cpAC17-4 RNA aptamer was determined as 30 nM. Moreover, the “inhibition of Kv12.2 (KCNH3) in words” value in data set [1] is “potent and selective inhibitor; also recorded: known inhibitor”. In data set [2], the antipsychotic activities entry was “has antipsychotic activities”.

Regarding `Fc1ccc(Nc2nc(NCc3ncccn3)nc(Nc3ccc(F)cc3)n2)cc1` [ASP7967], the “hEPO level in medium relative to control plasmid” value in data set [3] (10 μM ASP7967, pAAV-CMV-hEPO-a8c-AC17-4-CPP) is reported as 29%. The fold induction at 10 µM in data set [3] (Homo sapiens, HEK293, 24 h, read-out: induction of hEPO) stood at 10. Besides, the Tmax is at most 1 h in data set [4] (mouse, liver, 100 mg kg^−1 oral, read-out: time of maximum liver concentration) and at most 1 h in data set [4] (mouse, plasma, 100 mg kg^−1 oral, read-out: time of maximum plasma concentration). For the same molecule, the Kp in data set [4] (mouse, liver, 100 mg kg^−1 oral, read-out: concentration ratio of liver to plasma) lay within 2.7 to 30.6. In data set [4] (oral administration), the “concentration in the liver / distribution (in words)” value is given as “high concentration; also recorded: distributed to the liver”.

The values are drawn from patent US20260327628A1, “AN RNA APTAMER THAT BINDS TO ASP7967 OR AN ANALOGUE THEREOF” (priority 2022, published 2026).
